Data as given in paper PMC9862175 (Molecules, 2023).
Where “and” joins values, the source holds several entries; their conditions need not be identical. Equal entries are not always repeated. Where two headings read alike, the source gives them in different places.

Columns and labels:
[1] = biological target: T1, 17β-HSD1 (Homo sapiens, UniProt P14061); test: 17β-HSD1 inhibition assay: transformation of [3H]-E1 to [3H]-E2 in whole T-47D cells; type: cell-based; settings: for inhibition at 0.1 µM / inhibition at 1 µM / inhibition at 10 µM: T47D
T1 construct: endogenous in cells; host or cells: T-47D human breast cancer cells (ATCC), whole cells
T1 sequence (P14061 1-328): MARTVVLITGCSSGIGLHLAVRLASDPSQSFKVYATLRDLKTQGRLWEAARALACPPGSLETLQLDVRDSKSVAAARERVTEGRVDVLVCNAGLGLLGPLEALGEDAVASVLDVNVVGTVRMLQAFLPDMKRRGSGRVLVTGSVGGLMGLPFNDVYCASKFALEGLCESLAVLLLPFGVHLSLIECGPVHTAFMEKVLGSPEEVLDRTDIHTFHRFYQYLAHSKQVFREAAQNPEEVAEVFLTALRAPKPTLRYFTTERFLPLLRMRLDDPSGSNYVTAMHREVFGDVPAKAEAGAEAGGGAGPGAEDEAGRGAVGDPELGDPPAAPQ
Experimental: Cells were maintained under a 5% CO2 humidified atmosphere at 37 °C. The culture media were changed every two or three days and the cells were split once a week to maintain cell propagation.
T-47D cells were grown in a medium supplemented with insulin (50 ng/mL) and 5% dextran-coated charcoal-treated FBS, which was used rather than untreated 10% FBS, to remove the remaining steroid hormones. Stock solution of each compound to be tested was previously prepared in DMSO and diluted with a culture medium to achieve the appropriate concentrations, prior to use. For the assay, the cells (8000 cells/well) were seeded in a 24-well plate. After 24 h of incubation, a diluted solution of each inhibitor was added to the cells to obtain the appropriate final concentration (0.1, 1 and 10 μM). The final concentration of DMSO in the well was adjusted to 0.03%. […] Cells were incubated for 24 h and each inhibitor was assessed in triplicate. […] The organic phase was evaporated to dryness with nitrogen. Residues were dissolved in CH2Cl2, spotted on silica gel TLC plates (EMD Chemicals Inc., Gibbstown, NJ, USA) and eluted with toluene/acetone (4:1) as the solvent system. […] Each compound was quantified with a scintillation counter.

[2] = system: Z-12 endometriotic epithelial cells; test: Cell viability (MTS) assay in Z-12 cells; type: cell-based, human; settings: for IC50: cell proliferation after 3 days, MTS, read-out: Z-12 Cells (Endometriosis) (IC50 in μM), cell proliferation; for Stimulation of ER+ cell proliferation (estrogenic activity): Z-12 cells, 3 days
Experimental: Z-12 cells: Human Z-12 endometriotic epithelial cells were obtained from Dr. Asgi T. Fazleabas (Michigan State University, Grand Rapids, MI). Cells were grown in Dulbecco’s Modified Eagle medium (DMEM/F12) supplemented with 5% (v/v) FBS treated with dextran-coated charcoal, L-glutamine ([…]), penicillin (100 IU/mL) and streptomycin (100 µg/mL). Cells were maintained under a 5% CO2 humidified atmosphere at 37 °C. The culture media were changed every two or three days and the cells were split once a week to maintain cell propagation.
(§1) The cell proliferation assays were performed using 3-(4,5-dimethylthiazol-2-yl)-5-(3-carboxymethoxyphenyl)-2-(4-sulfophenyl)-2H-tetrazolium (MTS) (Cell Titer 96 Aqueous, Promega, Nepean, ON, Canada), as previously described. Briefly, cells (5000/well for T-47D or 3000/well for Z-12) were plated in triplicate in 96-well plates in appropriate culture medium (total of 90 µL). Before each treatment, the cells were incubated at 37 °C in a 5% CO2 humidified atmosphere for 24 h. Compounds 5, 6, 10 and RM-581, as positive control, were dissolved in DMSO to obtain stock solutions, which were diluted at multiple concentrations with culture media to obtain the desired final concentration by adding 10 µL in each well, and the mixture was incubated for 3 days. Following treatment, 20 µL of a solution of MTS were added to each well and the mixture was incubated for 4 h. The plates were subsequently analyzed at 490 nm using a Tecan M-200 microplate reader (Männedorf, Switzerland) and the concentration inhibiting 50% of cell proliferation was determined using GraphPad Prism 6 software.

[3] = system: T-47D breast cancer cells; test: Cell viability (MTS) assay in T-47D cells; type: cell-based, human; settings: for IC50: cell proliferation after 3 days, MTS; for Stimulation of ER+ cell proliferation (estrogenic activity): T-47D cells, 3 days
Experimental: T-47D cells: Human T-47D breast cancer cells were obtained from American Type Culture Collection (Manassas, VA, USA) and cultured in RPMI-1640 supplemented with L-glutamine ([…]), penicillin (100 IU/mL), streptomycin (100 µg/mL), 17β-estradiol (1 nM) and 10% (v/v) fetal bovine serum (FBS). Cells were maintained under a 5% CO2 humidified atmosphere at 37 °C. The culture media were changed every two or three days and the cells were split once a week to maintain cell propagation.
as §1

[4] = Homo sapiens, Epithelial cell, 72 h
[5] = read-out: Inhibition (IC50 in μM) of E1 to E2 transformation by 17β-HSD1, T-47D cells, [3H]-E1/E1 60 nM, 24 h
[6] = T-47D cells, [3H]-E1/E1 60 nM, 24 h, inhibitor 0.1 μM
[7] = T-47D cells, [3H]-E1/E1 60 nM, 24 h, inhibitor 1 μM
[8] = T-47D cells, [3H]-E1/E1 60 nM, 24 h, inhibitor 10 μM

| Compound | IC50 [1] [µM] | inhibition at 0.1 µM [1] [%] | inhibition at 1 µM [1] [%] | inhibition at 10 µM [1] [%] | IC50 [2, 4] [µM] | Stimulation of ER+ cell proliferation (estrogenic activity) [2] | IC50 ([3]; Homo sapiens, T47D, 72 h) [µM] | Stimulation of ER+ cell proliferation (estrogenic activity) [3] | other results |
| --- | --- | --- | --- | --- | --- | --- | --- | --- | --- |
| C[C@]12CC[C@@H]3c4ccc(Oc5cccc(C(N)=O)c5)cc4CC[C@H]3[C@@H]1CCC2=O [Compound 5, 3-(3-Carbamoylphenyloxy)-estra-1,3,5(10)-trien-17-one] | 0.31 | 29.1 ± 6.2 | 70.7 ± 14.1 | 98.9 ± 2.8 | > 30 | did not stimulate | 49 | did not stimulate |  |
| C[C@]12CC[C@@H]3c4ccc(Oc5cccc(C(N)=O)c5)cc4CC[C@H]3[C@@H]1CC[C@@H]2O [Compound 6, 3-(3-Carbamoylphenyloxy)-estra-1,3,5(10)-trien-17β-ol] | 1.2 | 40 ± 6.5 | 48.6 ± 15.7 | 59.6 ± 1.5 | > 30 | did not stimulate | 37 | did not stimulate |  |
| C[C@]12CC[C@@H]3c4ccc(Oc5cccc(C(N)=O)c5)cc4CC[C@H]3[C@@H]1C[C@@H](CCCBr)[C@@H]2O [Compound 10, 3-(3-Carbamoylphenyloxy)-16α-(3-bromopropyl)-estra-1,3,5(10)-trien-17β-ol] |  | 28.2 ± 5.4 | 37 ± 14.5 | 82.1 ± 5.7 | 20 | did not stimulate | 14 | did not stimulate | Inhibitory activity, fold lower than EM-251 ([1]; IC50 1.3 μM vs 0.58 μM of EM-251, T-47D cells): 2 fold; IC50 [1, 5]: 1.3 µM |
| C[C@]12CC[C@@H]3c4ccc(O)cc4CC[C@H]3[C@@H]1CCC2=O [E1, estrone] |  |  |  |  |  |  |  |  | inhibition at 0.1 µM [1, 6]: 45%; inhibition at 1 µM [1, 7]: 61%; inhibition at 10 µM [1, 8]: 78%; Inhibition (% at 0.1 μM) [1, 6]: 44.9 ± 14.7%; Inhibition (% at 1 μM) [1, 7]: 60.9 ± 8.3%; Inhibition (% at 10 μM) [1, 8]: 78.1 ± 2.2% |
| C[C@]12CCC3c4ccc(O)cc4CCC3C1C[C@@H](CCCBr)[C@@H]2O (some centres unmarked) [EM-251] | 0.58 | 43.8 ± 0.2 | 36.9 ± 9.3 | 86.6 ± 8 |  |  |  |  |  |
| C[C@]12CC[C@@H]3c4ccc(CCBr)cc4CC[C@H]3[C@@H]1C[C@H](Cc1cccc(C(N)=O)c1)[C@@H]2O [PBRM] |  |  |  |  |  |  |  |  | Inhibition (% at 0.1 μM) [1, 6]: 44% and 43.8 ± 3.4%; Inhibition (% at 1 μM) [1, 7]: 75% and 74.8 ± 3.2%; Inhibition (% at 10 μM) [1, 8]: 91.0 ± 3.8%; IC50 [1, 5]: 0.15 µM |
| C#C[C@]1(O)CC[C@H]2[C@@H]3CCc4cc(OC)c(N5CCN(C(=O)[C@@H]6CCCN6C(=O)c6ccc7ccccc7n6)CC5)cc4[C@H]3CC[C@@]21C [RM-581, reference compound] |  |  |  |  |  |  |  |  | IC50 [2]: 1.5 µM; IC50 [3]: 0.61 µM |
